Tests used:
[1] = test system: human primed state stem cells; assay: Stem cell drug screen on primed state stem cells (pluripotency, proliferation, differentiation); type: cell-based; conditions: for induction of differentiation / effect on growth of primed state stem cells: treated for 3 days, JQ1 at 500 nM or 1 uM (FIGS. 11-12)
Procedure: (§1) The stem cell screening assay, was performed in both the presence and absence of the stem cell growth factors: NME7AB for growing naïve stem cells or FGF for growing primed stem cells. If the cognate growth factor was present, then the biological or small molecule would have to compete away the growth factor to get an effect. Therefore, we expected to see more of an effect when the growth factor, FGF for primed stem cells or NME7AB or NME1 dimers for naïve stem cells, was absent. The effect of the compounds on stem cells was visually determined and compounds were ranked 0-4, with 4 being the greatest effect and 0 being no observable effect. The major effect that was observed was a change from pluripotent stem cell morphology, which is a cobblestone pattern of small round cells with a large nucleus to cytoplasm ratio, to that of differentiating stem cells, which are elongated, large and flattened cells with a smaller nucleus to cytoplasm ratio. […] The compounds were added to a final concentration of 6 uM to either naïve state stem cells or primed state stem cells. In this particular case, the naïve state stem cells were maintained in a naïve state by culturing in a media containing NME7AB or NME1 dimers. However, other methods such as 2i and 5i (Silva et al., 2008, Nichols and Smith, 2009, Theunissen et al., 2014)] can be used to maintain stem cells in a more naïve state. In this case primed state stem cells were cultured in bFGF over a layer of MEFs, although it is known that any bFGF containing media will maintain stem cells in the primed state.
(§2) Percent inhibition of cancer cell migration was performed in a wound healing assay. The percent area that the invading cancer cells occupied, in the presence of a drug candidate compared to the controls, was quantified by Image J cell software which enables cell counting from photographs. IC50's were calculated by performing migration experiments at several compound concentrations and then applying Hill's equation. Inhibition of cancer cell proliferation was quantified by automated cell counting in the presence or absence of a drug candidate. Here, the inhibition of cancer cell proliferation was scored 1 if proliferation was inhibited by 25%, 2 if inhibited by […] and 4 for the highest degree of inhibition of proliferation, and 0 for the lowest. The effect of the drug candidates on stem cell pluripotency or proliferation was scored by eye, based on cell morphology and cell density, with 0 being no change in morphology or cell number and 4 being the most profound effect, with the stem cells taking on the morphology of a differentiating cell, along with much fewer cells indicative of inhibition of proliferation. As an example, FIGS. 30A-30F show photographs of naïve stem cell, primed stem cell and fibroblast controls. FIGS. 31A-31F show the effect of compounds of the invention on naïve state stem cells, where the number of ‘+’ signs indicates the score from 0-4 of ability of compound to inhibit pluripotency, proliferation of naïve stem cells or ability to induce their differentiation. […] FIGS. 36-44 and 65-87 show photographs and IC50 graphs of the compounds of the invention, inhibiting cancer cell migration and invasion. Cancer cell migration is a hallmark of metastatic cancer.
Stem cells whether embryonic or induced pluripotent stem (iPS) cells were cultured in a minimal, serum-free media that contained human recombinant bFGF at a concentration of 8 ng/mL. The stem cells were plated over a layer of inactivated mouse embryonic fibroblasts, aka MEFs, which secrete additional uncharacterized growth factors and cytokines.
Human naïve state and primed stem cells were cultured in parallel for at least 5 passages to guarantee normal differentiation-free growth. The stem cells were plated in 12-well cell culture plates with 50,000 cells per well. Cells were cultured in their respective media, either bFGF media or NME7AB media for 24 hours. […]

human fibroblasts = assay: Effect on fibroblasts as surrogate for normal cells; type: cell-based; conditions: 500 nM final concentration (FIG. 24)
From the text: However, fibroblasts are more differentiated than stem cells but are able to self-replicate for defined periods of time. We tested selected compounds of the invention to determine if these compounds were just cytotoxic or if they selectively affected stem cells and, importantly, cancer cells, but not normal, healthy cells. Here, we used fibroblasts as a surrogate for normal cells. […] […] Each compound was scored for its effect on fibroblast proliferation where “+” indicates 25% inhibition of fibroblast growth, “++” 50% inhibition and “+++” 75% inhibition of growth.

[2] = test system: fibronectin, vimentin, NF1; assay: RT-PCR of markers of differentiation in naïve stem cells; type: cell-based, human
From the text: The genes whose expression increased as a result of treatment with the compounds of the invention, in a concentration dependent manner, are fibronectin and vimentin, which both increase as stem cells initiate differentiation and NF1, which is one of the first genes to increase when stem cells begin to differentiate down the neural lineage. […] Thus, compounds of the invention that induce markers of differentiation are useful for the treatment of cancers, because cancer cells, by definition, have de-differentiated, which allows them to continually self-replicate. […] Expression of metastatic marker E-cadherin was reduced and expression of differentiation markers fibronectin, vimentin and NF1 were increased.

[3] = test system: human naïve state stem cells; assay: Stem cell drug screen on naïve state stem cells (pluripotency, proliferation, differentiation); type: cell-based; conditions: JQ1 at 500 nM or 1 uM, naïve cells from NME7AB or NME1 dimers (FIGS. 13-16)
[4] = test system: human naïve state stem cells; assay: as above; type: cell-based; conditions: first panel (FIGS. 2, 7-10); small molecules 6 uM; 3 days; with or without NME7AB
Procedure: as §1, §2
Stem cells whether embryonic or induced pluripotent stem (iPS) cells were cultured in a minimal, serum-free media that contained human recombinant NME7AB at a concentration of 2-32 nM wherein 4-8 nM is preferred and 4 nM is more preferred. To facilitate surface attachment, cell culture plates were coated with an anti-MUC1* monoclonal antibody called MN-C3 or C3 or MN-C8 at a concentration of 2-100 μg/mL coating solution, wherein 3-50 ug/mL is preferred and 6-12.5 ug/mL is more preferred. In these experiments, 12.5 ug/mL of MN-C3 was used. Antibody coated plates were incubated at 4 degrees C. overnight prior to plating stem cells. A Rho kinase I inhibitor was added to enhance surface attachment. […]

cancer cells [5] = conditions: NME7AB-driven transformation; stated as previously shown; cited from earlier work
cancer cells [6] = conditions: in vitro; stated as previously shown; cited from earlier work

## Cc1sc2c(c1C)C(c1ccc(Cl)cc1)=N[C@@H](CC(=O)OC(C)(C)C)c1nnc(C)n1-2 [JQ1(+), reference compound]
[1]; treated for 3 days (FIG. 11)
  effect on the size of primed stem cell colonies: modest effect
[1]
  induction of differentiation / effect on growth of primed state stem cells: None of these agents appeared to induce differentiation
[1]; listed as JQI
  induction of differentiation / effect on growth of primed state stem cells: not primed stem cell growth
Human fibroblasts
  effect on human fibroblasts: same effect on fibroblasts as it does on primed state stem cells
[2]
  up-regulation of markers of differentiation in stem cells: did not cause up-regulation of markers of differentiation
[3]
  effect on naïve state stem cell differentiation and growth: dramatically induced differentiation of naïve state stem cells and inhibited their growth
[3]; listed as JQI
  effect on naïve state stem cell differentiation and growth: inhibitory effect

## FLR peptide: synthetic peptide corresponding to the extracellular domain of MUC1*, FLR also known as PSMGFR (SEQ ID NO:3) (GTINVHDVETQFNQYKTEAASRYNLTISDVSVSDVPFPFSAQSGA; the extracellular domain of Native Primary Sequence of the MUC1 Growth Factor Receptor (nat-PSMGFR - an example of "PSMGFR"))
[4]
  induced differentiation / inhibited pluripotency and growth of naïve state stem cells: induced differentiation
Cancer cells [5]
  inhibition of the transition of regular cancer cells to metastatic cancer cells: inhibit the transition

## COC(=O)c1ccc(C2c3[nH]c4ccccc4c3CCN2C(=O)c2cccc(Cl)c2)cc1 (centres unmarked) [MN0642]
[4]
  induced differentiation / inhibited pluripotency and growth of naïve state stem cells: induced differentiation
Cancer cells [6]
  inhibition of cancer cell growth: inhibit the growth of cancer cells in vitro

## Cc1[nH]c(/C=C2\C(=O)Nc3ccc(S(=O)(=O)N(C)c4cccc(Cl)c4)cc32)c(C)c1C(=O)N1CCN(C)CC1 [SU11274]
[2]
  up-regulation of markers of differentiation in stem cells: did not cause up-regulation of markers of differentiation

## CCCCNC(=O)N1CCc2c([nH]c3ccccc23)C1C(C)c1ccccc1 (centres unmarked) [MN1130]
[4]
  induced differentiation / inhibited pluripotency and growth of naïve state stem cells: induced differentiation
[1]; first panel (FIGS. 2-6), small molecules 6 uM, 3 days, with or without FGF
  effect on primed stem cells: modest effect

Source: patent US12630512B2, “Agents for differentiating stem cells and treating cancer” (Minerva Biotechnologies Corporation, priority 2017, dated 2026)
